Laboratory results from patent US11098032B2, “Pyran dervatives as CYP11A1 (cytochrome P450 monooxygenase 11A1) inhibitors” (ORION CORPORATION, priority 2016, dated 2021).

Target: T1, CYP11A1 (Homo sapiens, UniProt P05108)
T1 construct: human H295R adrenocortical carcinoma cell line was used as source of enzyme; endogenous in cells; host or cells: H295R human adrenocortical carcinoma cells
T1 sequence (P05108 40-521): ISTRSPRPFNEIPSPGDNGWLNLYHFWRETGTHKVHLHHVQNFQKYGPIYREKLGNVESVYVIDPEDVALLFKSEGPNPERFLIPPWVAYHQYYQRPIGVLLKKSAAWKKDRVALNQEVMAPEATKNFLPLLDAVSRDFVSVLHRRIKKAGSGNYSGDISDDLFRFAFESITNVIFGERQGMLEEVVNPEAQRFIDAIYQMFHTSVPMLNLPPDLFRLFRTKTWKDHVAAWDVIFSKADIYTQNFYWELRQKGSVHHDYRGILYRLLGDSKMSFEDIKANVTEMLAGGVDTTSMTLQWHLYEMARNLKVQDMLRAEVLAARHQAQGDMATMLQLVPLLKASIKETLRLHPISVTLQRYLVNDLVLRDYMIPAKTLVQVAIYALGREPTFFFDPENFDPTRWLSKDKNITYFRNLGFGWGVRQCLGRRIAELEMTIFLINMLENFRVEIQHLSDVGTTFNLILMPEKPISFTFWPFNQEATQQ
Assay: CYP11A1 inhibition: modified isocaproic acid release assay (IARA) in H295R cells
Format: cell-based
Settings: human H295R adrenocortical carcinoma cells treated three days, 3 nM [24,25-3H]-labelled cholesterol, 1% DMSO, 10 concentrations in duplicates; read-out: IC50 of the test compounds on CYP11A1 inhibition
Method: The ability of the test compounds to inhibit conversion of cholesterole to pregnenolone and isocaproic acid was measured by modification of isocaproic acid release assay (IARA) described by Ruangwises et. al. (Biology of Reproduction 1991; 45(1):143-50) except that human H295R adrenocortical carcinoma cell line was used as source of enzyme and extraction was done with dextran-coated charcoal suspension (Isomaa, V. et al., Endocrinology 1982; 111(3):833-843). […] To determine the half maximal inhibitory concentration (IC50) of the test compounds on CYP11A1 inhibition, the cells were treated for three days with increasing concentrations of the test compounds in the presence of 3 nM [24,25-3H]-labelled cholesterol (American Radiolabelled Chemicals). The final DMSO concentration was 1%. Cell culture medium was extracted with dextran-coated charcoal suspension and the radiolabelled isocaproic acid was determined by mixing 100 μl of supernatant fraction in 200 μl of scintillation fluid (OptiPhase SuperMix, Perkin Elmer). Radioactivity was measured using a Microbeta scintillation counter (1450 MicroBeta Trilux, Wallac). All the test compounds were studied at 10 concentrations in duplicates.

SMILES	IC50
CC(C)(CO)CNC(=O)c1ccc(COc2coc(CN3Cc4ccccc4C3)cc2=O)cc1 [Compound 151, N-(3-Hydroxy-2,2-dimethylpropyl)-4-(((6-(isoindolin-2-ylmethyl)-4-oxo-4H-pyran-3-yl)oxy)methyl)benzamide]	301 to 2000 nM
O=c1cc(CN2Cc3ccccc3C2)occ1OCC1CCN(S(=O)(=O)C2COC2)CC1 [Compound 36, 2-(Isoindolin-2-ylmethyl)-5-((1-(oxetan-3-ylsulfonyl)piperidin-4-yl)methoxy)-4H-pyran-4-one]	< 150 nM
O=c1cc(CN2Cc3ccccc3C2)occ1OCc1ccc(Br)cc1 [Compound 58, 5-((4-Bromobenzyl)oxy)-2-(isoindolin-2-ylmethyl)-4H-pyran-4-one]	301 to 2000 nM
CS(=N)(=O)c1ccc(COc2coc(CN3CCc4ccccc4C3)cc2=O)cc1 (centres unmarked) [Compound 87, 2-((3,4-Dihydroisoquinolin-2(1H)-yl)methyl)-5-((4-(S-methylsulfonimidoyl)-benzyl)oxy)-4H-pyran-4-one]	301 to 2000 nM
CC1c2ccccc2CCN1Cc1cc(=O)c(OCc2ccc(C(C)(C)O)cc2)co1 (centres unmarked) [Compound 59, 5-((4-(2-Hydroxypropan-2-yl)benzyl)oxy)-2-((1-methyl-3,4-dihydroisoquinolin-2(1H)-yl)methyl)-4H-pyran-4-one]	301 to 2000 nM
O=C(COc1coc(CN2Cc3ccccc3C2)cc1=O)N1CCN(c2ccc(Cl)cc2)CC1 [Compound 154, 5-(2-(4-(4-Chlorophenyl)piperazin-1-yl)-2-oxoethoxy)-2-(isoindolin-2-ylmethyl)-4H-pyran-4-one]	301 to 2000 nM
Cn1nccc1S(=O)(=O)N1CCC(COc2coc(CN3Cc4ccccc4C3)cc2=O)CC1 [Compound 255, 2-(Isoindolin-2-ylmethyl)-5-((1-((1-methyl-1H-pyrazol-5-yl)sulfonyl)piperidin-4-yl)methoxy)-4H-pyran-4-one]	< 150 nM
CC(C)(O)c1ccc(COc2coc(CN3CCc4ccccc4C3)cc2=O)cc1 [Compound 44, 2-((3,4-dihydroisoquinolin-2(1H)-yl)methyl)-5-((4-(2-hydroxypropan-2-yl)-benzyl)oxy)-4H-pyran-4-one]	< 150 nM
O=C1NCc2cc(COc3coc(CN4Cc5ccccc5C4)cc3=O)ccc21 [Compound 180, 5-(((6-(Isoindolin-2-ylmethyl)-4-oxo-4H-pyran-3-yl)oxy)methyl)isoindolin-1-one]	150 to 300 nM
N#Cc1ccc(COc2coc(CN3Cc4ccc(Br)cc4C3)cc2=O)cc1 [Compound 278, 4-((6-((5-Bromoisoindolin-2-yl)methyl)-4-oxo-4H-pyran-3-yloxy)methyl)benzonitrile]	< 150 nM
COCCS(=O)(=O)c1ccc(COc2coc(CN3Cc4ccccc4C3)cc2=O)cc1 [Compound 28, 2-(Isoindolin-2-ylmethyl)-5-((4-((2-methoxyethyl)sulfonyl)benzyl)oxy)-4H-pyran-4-one]	150 to 300 nM
CC(=O)N=S(C)(=O)c1ccc(COc2coc(CN3Cc4ccccc4C3)cc2=O)cc1 (centres unmarked) [Compound 94, N-{[4-({[6-(1,3-dihydro-2H-isoindol-2-ylmethyl)-4-oxo-4H-pyran-3-yl]oxy}-methyl)phenyl](methyl)oxido-λ^6-sulfanylidene}]	150 to 300 nM
CNC(=O)c1ccc(COc2coc(CN3CCc4ccccc4C3)cc2=O)cc1 [Compound 48, 4-(((6-((3,4-Dihydroisoquinolin-2(1H)-yl)methyl)-4-oxo-4H-pyran-3-yl)oxy)-methyl)-N-methylbenzamide]	301 to 2000 nM
COc1ccc(COc2coc(CN3CCc4ccccc4C3)cc2=O)cc1 [Compound 121, 2-((3,4-Dihydroisoquinolin-2(1H)-yl)methyl)-5-((4-methoxybenzyl)oxy)-4H-pyran-4-one]	150 to 300 nM
CN(C)S(=O)(=O)c1ccc(COc2coc(CN3Cc4ccccc4C3)cc2=O)cc1 [Compound 10, 4-(((6-(Isoindolin-2-ylmethyl)-4-oxo-4H-pyran-3-yl)oxy)methyl)-N,N-di-methylbenzenesulfonamide]	< 150 nM
O=C(N1CCC(COc2coc(CN3Cc4ccccc4C3)cc2=O)CC1)C(F)(F)F [Compound 273, 2-(Isoindolin-2-ylmethyl)-5-((1-(2,2,2-trifluoroacetyl)piperidin-4-yl)methoxy)-4H-pyran-4-one]	150 to 300 nM

SMILES	IC50
CCN(CC)C(=O)c1ccc(COc2coc(CN3Cc4ccccc4C3)cc2=O)cc1 [Compound 126, N,N-Diethyl-4-(((6-(isoindolin-2-ylmethyl)-4-oxo-4H-pyran-3-yl)oxy)methyl)-benzamide]	150 to 300 nM
CS(=O)(=O)N1CCC(CCCOc2coc(CN3Cc4ccccc4C3)cc2=O)CC1 [Compound 213, 2-(Isoindolin-2-ylmethyl)-5-(3-(1-(methylsulfonyl)piperidin-4-yl)propoxy)-4H-pyran-4-one]	< 150 nM
CC(C)(C)OC(=O)N1CCC(COc2coc(CN3Cc4ccccc4C3)cc2=O)C1 (centres unmarked) [Compound 182, tert-Butyl 3-(((6-(isoindolin-2-ylmethyl)-4-oxo-4H-pyran-3-yl)oxy)methyl)-pyrrolidine-1-carboxylate]	301 to 2000 nM
C[S@@](=N)(=O)c1ccc(COc2coc(CN3Cc4ccc(C(F)(F)F)cc4C3)cc2=O)cc1 [Compound 286, 5-((4-(R-Methylsulfonimidoyl)-benzyl)oxy)-2-((5-(trifluoromethyl)isoindolin-2-yl)methyl)-4H-pyran-4-one]	< 150 nM
COc1ccc2c(c1)CCN(Cc1cc(=O)c(OCc3ccc(C(C)(C)O)cc3)co1)C2 [Compound 52, 5-((4-(2-Hydroxypropan-2-yl)benzyl)oxy)-2-((6-methoxy-3,4-dihydroisoquinolin-2(1H)-yl)methyl)-4H-pyran-4-one]	301 to 2000 nM
CS(=O)(=O)c1ccc(COc2coc(CN3Cc4ccccc4C3)cc2=O)c(F)c1 [Compound 34, 5-((2-Fluoro-4-(methylsulfonyl)benzyl)oxy)-2-(isoindolin-2-ylmethyl)-4H-pyran-4-one]	150 to 300 nM
O=c1cc(CN2Cc3ccccc3C2)occ1OCc1ccc(-n2cc(Br)cn2)cc1 [Compound 39, 5-((4-(4-Bromo-1H-pyrazol-1-yl)benzyl)oxy)-2-(isoindolin-2-ylmethyl)-4H-pyran-4-one]	150 to 300 nM
N#Cc1cccc(COc2coc(CN3CCc4ccccc4C3)cc2=O)c1 [Compound 50, 3-(((6-((3,4-Dihydroisoquinolin-2(1H)-yl)methyl)-4-oxo-4H-pyran-3-yl)oxy)-methyl)benzonitrile]	301 to 2000 nM
Cc1ccc(S(=O)(=O)N=S(C)(=O)C2CCC(COc3coc(CN4Cc5ccccc5C4)cc3=O)CC2)cc1 (centres unmarked) [Compound 239, N-{[4-({[6-(1,3-Dihydro-2H-isoindol-2-ylmethyl)-4-oxo-4H-pyran-3-yl]oxy}-methyl)cyclohexyl](methyl)oxido-λ^6-sulfanylidene}-4-methylbenzenesulfonamide]	150 to 300 nM
O=c1cc(CN2CCc3ccccc3C2)occ1OCc1ccc(C2(O)COC2)cc1 [Compound 117, 2-((3,4-Dihydroisoquinolin-2(1H)-yl)methyl)-5-((4-(3-hydroxyoxetan-3-yl)-benzyl)oxy)-4H-pyran-4-one]	301 to 2000 nM
CC(C)CC(=O)C(=O)N1CCC(COc2coc(CN3Cc4ccccc4C3)cc2=O)CC1 [Compound 249, 1-(4-(((6-(Isoindolin-2-ylmethyl)-4-oxo-4H-pyran-3-yl)oxy)methyl)piperidin-1-yl)-4-methylpentane-1,2-dione]	< 150 nM
O=C(COc1coc(CN2Cc3ccccc3C2)cc1=O)N1CCC(Cc2ccccc2)CC1 [Compound 155, 5-(2-(4-Benzylpiperidin-1-yl)-2-oxoethoxy)-2-(isoindolin-2-ylmethyl)-4H-pyran-4-one]	301 to 2000 nM
NC(=O)c1ccc(COc2coc(CN3Cc4ccccc4C3)cc2=O)cc1 [Compound 57, 4-(((6-(Isoindolin-2-ylmethyl)-4-oxo-4H-pyran-3-yl)oxy)methyl)benzamide]	301 to 2000 nM
O=c1cc(CN2Cc3ccccc3C2)occ1OCc1ccc(S(=O)(=O)N2CCC2)cc1 [Compound 9, 5-((4-(Azetidin-1-ylsulfonyl)benzyl)oxy)-2-(isoindolin-2-ylmethyl)-4H-pyran-4-one]	150 to 300 nM
CC(c1cc(=O)c(OCC2CCN(S(C)(=O)=O)CC2)co1)N1Cc2ccccc2C1 (centres unmarked) [Compound 195]	< 150 nM
O=c1cc(CN2Cc3ccccc3C2)occ1OCC1CCC(CN2CCCS2(=O)=O)CC1 (centres unmarked) [Compound 176, 5-((4-((1,1-Dioxidoisothiazolidin-2-yl)methyl)cyclohexyl)methoxy)-2-(isoindolin-2-ylmethyl)-4H-pyran-4-one]	< 150 nM
